Literature values as cited in US20100136089A1, “LOCATION OF FATTY ACID ESTERS ON TAMPONS AND TOXIN […]” (priority 2008, published 2010).

Tested on: humans
Settings: stated as known

CCCCCCCCCCCC(=O)OCC(O)CO (stereo not shown) [GML, glycerol monolaurate]
toxicity to humans: non toxic to humans
